This is an account of results in patent publication US20030139446A1, “Preparation of pharmaceutical salts” (Schering Corporation, priority 2001, published 2003).

For this series the following is noted: diastereomeric ratio 1,2 to 3,4 in solids 95:5.

Molecules are shown by their SMILES. Where two headings read alike, the source gives them in different places.

As for `O=C(O)c1ccccc1O` [Salicylate], the “stability remark for salt solids” value reads like this: (salt prepared in EtOH) “stable”; (salt prepared in iPrOAc) “stable”.
